For assay [1], the target named is CB1 (Homo sapiens, UniProt P21554). It counts as binding.
In assay [2] the target is CB1^WT (Homo sapiens, UniProt P21554). The following applies: [3H]CP55940 binding.
The target in assay [3] is C98A,C107ACB1^WT (Homo sapiens, UniProt P21554, C107A/C98A). The note with it: [3H]CP55940 binding, N-terminal C98-C107 disulfide removed by mutation.
Setting [4] is: CB1^WT treated with 10 mM DTT for 20 min prior to assay.

Each structure is given as a SMILES string. Where two headings read alike, the source gives them in different places.

Chain of CB1^WT (P21554 whole entry): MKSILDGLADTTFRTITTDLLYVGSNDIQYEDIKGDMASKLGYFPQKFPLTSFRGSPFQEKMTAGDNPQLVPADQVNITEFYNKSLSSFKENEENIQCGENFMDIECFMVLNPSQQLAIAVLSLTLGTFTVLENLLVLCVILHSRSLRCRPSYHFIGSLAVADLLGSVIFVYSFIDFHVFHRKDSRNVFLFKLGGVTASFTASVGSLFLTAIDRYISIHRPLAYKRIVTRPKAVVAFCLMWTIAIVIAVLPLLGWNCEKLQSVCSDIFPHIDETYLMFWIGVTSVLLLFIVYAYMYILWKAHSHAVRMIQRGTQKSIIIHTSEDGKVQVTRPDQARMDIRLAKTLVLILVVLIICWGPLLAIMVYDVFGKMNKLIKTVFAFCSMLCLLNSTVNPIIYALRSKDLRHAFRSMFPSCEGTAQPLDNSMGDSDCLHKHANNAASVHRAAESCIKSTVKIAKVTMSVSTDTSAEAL
Chain of CB1 (P21554 whole entry): as above
Chain of C98A,C107ACB1^WT (P21554 whole entry C98A/C107A): as the sequence (P21554 whole entry) above, with C98A, C107A counted along it

Take `CCCCCCC(C)(C)c1ccc([C@@H]2C[C@H](O)CC[C@H]2CCCO)c(O)c1` [CP55940, (-)-cis-3-[2-hydroxy-4-(1,1-dimethyl-heptyl)phenyl]-trans-4-(3-hydroxypropyl)cyclohexanol]: the “cooperativity factor α between orthosteric ligand and DTT” value in assay [1] is listed as 0.69 ± 0.08.

Regarding `CCc1c(C(=O)NCCc2ccc(N3CCCCC3)cc2)[nH]c2ccc(Cl)cc12` [Org 27569], the “allosteric cooperativity factor α for agonist binding” value in assay [2] (setting [4]) came out at 6.8 ± 0.3; in assay [2] (untreated CB1^WT), 4.9 ± 0.4; in assay [3], 7.8 ± 0.5.

As to `O=C(Nc1ccc(Cl)cc1)Nc1cccc(-c2cccc(N3CCCC3)n2)c1` [PSNCBAM-1, 1-(4-chlorophenyl)-3-[3-(6-pyrrolidin-1-ylpyridin-2-yl)phenyl]urea], the figures for the “allosteric cooperativity factor α for agonist binding” value in assay [2] (setting [4]) and in assay [2] (untreated CB1^WT) were 5.9 ± 0.3 and 4.2 ± 0.2, respectively.

Source of the values: PMC3938390 (Biochemistry, 2013).
